The assay has as its target T1, hACC1-CT (Homo sapiens, UniProt Q13085).
T1 construct: PCR primers were designed for full-length hACC1 and hACC2 using GenBank submissions AY237919 and AJ575592, respectively; His tag (C); made in house; host or cells: baculovirus, Sf9 insect cells
Nature of the assay: acetyl-CoA/malonyl-CoA isotope exchange assay, CT half-reaction. It is filed as biochemical. On the procedure:
Overall ACC activity is comprised of two half-reactions, the BC reaction (the ATP-dependent carboxylation of biotin) and the CT reaction (the transfer of the carboxyl group from biotin to acetyl-CoA to form malonyl-CoA). Thus, it is of interest to localize the site of action of ACC inhibitors. To this end, representative compounds are tested in an acetyl-CoA/malonyl-CoA isotope exchange reaction which specifically measures the CT-half reaction. This assay is performed with slight modifications of published procedures (Gregolin et al., J Biol Chem, 1968, 243:4227-4235; Rendina et al., J Agric Food Chem, 1990, 38:1282-1287). Briefly, the reaction mixture (50 μL) contained 50 mM Hepes (pH 7.4), 20 mM K-citrate, 1.5 mM MgSO4, 4 mM malonyl-CoA, 1.67 mM acetyl-CoA, 0.34 mM [^14C]acetyl-CoA (about 60 mCi/mmol), 0.75 mg/mL BSA, and 1% (v/v) DMSO with or without inhibitor. Reactions are initiated by the addition of hACCl (0.3 μg) or hACC2 (0.15 μg) enzyme and incubated at 37° C. for 10 min. Reactions are stopped by addition of a 0.2M sodium arsenate solution containing 1U of phosphotransacetylase (13.5 μL) and incubation at room temperature for 30 min. […] The samples are then resuspended in water (200 μL), added to scintillation cocktail (3 mL), and counted in a scintillation counter to quantify radiolabel incorporated into malonyl-CoA. […]

The results in this text go back to US8110570B2, “Modulators of acetyl-coenzyme A carboxylase and methods of use thereof” (Cropsolution, Inc., priority 2008, dated 2012).

Broadly, the IC50 is the midpoint of a concentration-inhibition curve. A higher IC50 goes with a need for much substance. The compound `COc1cc(C(=O)N2CCC3(CC2)NC(=O)c2cc(Br)ccc2O3)nc2c(OC)cccc12` [Compound 2, 6-Bromo-1′-[(4,8-dimethoxyquinoline-2-yl)carbonyl]spiro[2H-1,3-benzoxazine-2,4′-piperidine]-4(3H)-one] came in with an IC50 of 100 nM.
